This assay concerns the target T1, human zDHHC2 (Homo sapiens, UniProt Q9UIJ5).
T1 construct: expressed in transfected cells; host or cells: HEK293T
T1 sequence (Q9UIJ5 1-367): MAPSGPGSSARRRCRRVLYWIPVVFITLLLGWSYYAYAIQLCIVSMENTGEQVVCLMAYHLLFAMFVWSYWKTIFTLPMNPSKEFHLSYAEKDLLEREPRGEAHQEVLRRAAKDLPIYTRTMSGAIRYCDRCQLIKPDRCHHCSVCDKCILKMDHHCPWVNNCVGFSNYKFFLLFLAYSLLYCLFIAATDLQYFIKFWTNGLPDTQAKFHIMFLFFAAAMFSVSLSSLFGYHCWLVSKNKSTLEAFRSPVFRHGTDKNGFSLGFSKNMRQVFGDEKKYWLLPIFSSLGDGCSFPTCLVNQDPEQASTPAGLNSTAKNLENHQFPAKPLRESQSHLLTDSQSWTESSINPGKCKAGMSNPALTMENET
The experiment in a line: PSD95-mCHERRY S-acylation in HEK293T cells co-expressing zDHHC2. The assay is classed as cell-based. The following applies: 25 μM. The text has this: PSD95 (postsynaptic density protein 95) is a major S-acylated protein that has a critical role in the maturation of excitatory neurons and in synaptic plasticity ([46], [47]). PSD95 can be S-acylated by zDHHC2, zDHHC3, zDHHC7, and zDHHC15 ([6]). […] We therefore tested the effects of TTZ-1 and TTZ-2 on the S-acylation of PSD95 mediated by zDHHC2, zDHHC3, zDHHC7, and zDHHC15. […] In contrast, zDHHC3 and zDHHC7 activities toward PSD95 were unaffected by TTZ-1 and TTZ-2, mirroring the data obtained with GFP-SNAP25 as a substrate.
Figure 9 Activity of TTZ-1 and TTZ-2 against PSD95 S-acylation mediated by human zDHHC2, zDHHC3, zDHHC7, and zDHHC15 expressed in mammalian cells. HEK293T cells were transfected with a plasmid encoding PSD95-mCHERRY together with either a control plasmid pEF-BOS-HA (pEF) or a plasmid encoding either HA-tagged human zDHHC2 (zD2), zDHHC3 (zD3), zDHHC7 (zD7), or zDHHC15 (zD15) for 24 h. Cells were then preincubated for 4 h with TTZ-1 or TTZ-2 (25 μM final) or DMSO control before metabolic labeling with 100 μM C16:0-azide for 4 h. Cells were lysed, and proteins having incorporated C16:0-azide were labeled by click chemistry with an alkyne-IR800 dye. […] The data were quantified, and the graphs below each set of membranes show mean ± SEM of normalized S-acylation of PSD95-mCHERRY (click signal/RFP signal). […]

We go through two compounds from paper PMC9558053, “Development of a novel high-throughput screen for the identification of new inhibitors of protein S-acylation” (The Journal of Biological Chemistry, 2022).

`CCCCCCCOc1ccc(C(=O)Nc2cccc3c2OC(c2nnn[nH]2)CN3)cc1` (centres unmarked) [TTZ-1, N-(2-(1H-Tetrazol-5-yl)-3,4-dihydro-2H-benzo[b][1,4]oxazin-8-yl)-4-(heptyloxy)benzamide]: the “PSD95-mCHERRY S-acylation by zDHHC2” value is listed as “significantly inhibited”. With `O=C(Nc1cccc2c1OC(c1nnn[nH]1)CN2)c1ccc(OCCCCc2ccccc2)cc1` (centres unmarked) [TTZ-2, N-(2-(1H-Tetrazol-5-yl)-3,4-dihydro-2H-benzo[b][1,4]oxazin-8-yl)-4-(4-phenylbutoxy)benzamide] the entry was “significantly inhibited”.
